Assay results as given in US20180344768A1, “NK CELL-BASED THERAPY” (Onkimmune Limited, priority 2016, published 2018).

Assays:
[1] = system: PD-L2; assay: Checkpoint ligand expression on MM cells treated with IL-6; format: cell-based, human; conditions: 100 ng/mL IL-6, 48 hours
Method: (§1) MM cells in log phase were seeded at 0.5 million/mL in RPMI1640 medium containing 10% FBS. A final concentration of 100 ng/mL IL-6 or same volume of vehicle (PBS) was used to treat MM cells for 48 hours. Then MM cells were harvested, washed, and stained with PD-L1 and PD-L2 antibodies (2.5 uL/test). Flow cytometric data were acquired using a FACS Canto II, and the results were further analyzed by […] 8.0.1 software.

[2] = system: PD-L1; assay: as above; format: cell-based, human; conditions: 100 ng/mL IL-6, 48 hours
Method: as §1

[3] = system: NKG2D (activating receptor); assay: Receptor expression on KHYG-1 cells after IL-6 stimulation; format: cell-based, human; conditions: 50 ng/mL IL-6 in the presence of IL-2, 24 hours
Description: (§2) Negative control means FMO. APC anti-human NKG2D Antibody (catalog number #320807) was bought from Biolegend. APC anti-human NKG2A Antibody (catalog number FAB1059A) was bought from R&D systems.

[4] = system: NKG2A (inhibitory receptor); assay: as above; format: cell-based, human; conditions: 50 ng/mL IL-6 in the presence of IL-2, 24 hours
Description: as §2

[5] = system: p-STAT3, p-SHP1, p-SHP2, p-P44/42; assay: IL-6 / IL-2 signaling in KHYG-1 cells, gel electrophoresis; format: cell-based, human
Description: PE labeled mouse anti-human CD126 (IL-6 receptor alpha chain) (Catalog: 551850), PE labeled mouse anti-human CD130 (gp130, IL-6 receptor-associated signal transducer) (Catalog #:555757), PE-labeled Mouse IgG1 k isotype control (Catalog: 555749), APC-labeled mouse anti-human CD2 (Catalog: 560642), FITC-labeled mouse anti-human CD2 (Catalog: 555326), APC-labeled mouse anti-human PD-L1 (Catalog: 563741) and APC-labeled mouse anti-human PD-L2 (Catalog: 557926) were bought from BD Pharmingen. APC-labeled mouse anti-human PD1 antibody (Catalog: 329907) was bought from Biolegend. Phosphor-Stat3(Ser727) mouse mAb (Catalog:9136), Phosphor-Shp-1(Tyr564) rabbit mAb (Catalog; 8849), Phosphor-Shp-2(Tyr580) rabbit mAb (Catalog: 5431), Phospho-p44/42 MAPK (Erk1/2) (Thr202/Tyr204) rabbit mAb (Catalog: 4370) and p44/42 MAPK (Erk1/2) rabbit mAb were bought from Cell Signaling Technology. Phosphor-Stat3(Tyr705) mouse mAb (Catalog: sc-81523) and rabbit anti-human Stat3 polyclonal antibody (Catalog: sc-7179) were bought from Santa Cruz Biotechnology. Mouse anti-beta actin (Catalog: A5441) was bought from SIGMA-ALDRICH. Functional IL-6 blocking antibody (Catalog: 501110) and the related isotype control antibody (Catalog: 400414) were bought from Biolegend.
KHYG-1 cells were cultivated and maintained as mentioned above.

[6] = system: K562 cells; assay: Inhibition of KHYG-1 cell cytotoxicity by IL-6, flow cytometry; format: cell-based; conditions: K562, IL-6 100 ng/mL
Method: (§3) KHYG-1, RPMI8226, MM1.S and K562 cells were cultured and maintained as described above. Cells were harvested in log phase, washed and re-suspended in pre-warmed appropriate mediums, before adjusting the cell concentration to 1 million/mL. The concentration of target cells was adjusted according to the E:T (effector: target) ratio. 0.5 mL KHYG-1 cells and 0.5 mL target cells were added to one well of a 24-well plate. IL-6 was added to the wells at final concentration of 100 ng/mL. The plates were then placed in a humidified 37° C./5% CO2 incubator for 12 hours (6 or 4 hours for K562 cells). The same mixture of KHYG-1 and target cells at time point 0 hr were used as a control.
(§4) Flow cytometry was used to measure the cytotoxicity of KHYG-1 cells. The co-cultured cells were collected (at different time points), washed and then stained with CD2-APC antibody (2.5 uL/test) first, then stained with AnnexinV-FITC (2.5 uL/test) and SYTOX-Green (0.5 uL/test) using AnnexinV binding buffer. Data were further analyzed using FlowJo 7.6.1 software. CD2-positive and CD2-negative gates were set which represent KHYG-1 cells and target cells, respectively. KHYG-1 cells were 100% positive for CD2, but K562, RPMI8226 and MM1.S cells were CD2-negative. Finally, the percentage of AnnexinV-FITC and SYTOX-Green positive cells (dead cells) in CD2-negative population was analyzed.

[7] = system: MM1.S cells; assay: as above; format: cell-based; conditions: IL-6 100 ng/mL, E:T 1:1, 12 hr incubation
Method: as §3, §4

[8] = system: RPMI8226 cells; assay: as above; format: cell-based; conditions: RPMI8226, IL-6 100 ng/mL, E:T 1:1, 12 hr incubation
Method: as §3, §4

[9] = KHYG-1 cells starved of IL-2 for 6 hours, cytokine alone (IL-2 10 ng/mL or IL-6 100 ng/mL)
[10] = KHYG-1 cells, IL-6 in the presence of IL-2

IL-6: Recombinant Human IL-6 (Catalog: 200-06) from PEPROTECH
PD-L2 expression ([1]; MM1.S cells): upregulation
PD-L2 expression ([1]; NCI-H929 cells): upregulation
PD-L2 expression ([1]; RPMI8226 cells): upregulation
PD-L2 expression ([1]; U266 cells): upregulation
PD-L1 expression ([2]; MM1.S cells): upregulation
PD-L1 expression ([2]; NCI-H929 cells): upregulation
PD-L1 expression ([2]; RPMI8226 cells): upregulation
PD-L1 expression ([2]; U266 cells): upregulation
NKG2D expression levels [3]: decreasing expression levels
NKG2A expression [4]: increasing expression
p-P44/42 [5, 9]: decreased expression
p-SHP1 [5, 9]: activated
p-SHP2 [5, 9]: activated
p-STAT3 [5, 9]: activated
p-P44/42 expression [5, 10]: decreasing
p-SHP1 expression [5, 10]: increasing
p-SHP2 expression [5, 10]: increasing
percentage of dead target cells co-cultured with KHYG-1 cells ([6]; E:T 1:1, 4 hr incubation): decreased
percentage of dead target cells co-cultured with KHYG-1 cells ([6]; E:T 1:1, 6 hr incubation): decreased
percentage of dead target cells co-cultured with KHYG-1 cells [7]: decreased
percentage of dead target cells co-cultured with KHYG-1 cells [8]: decreased
